Our source for the remaining activity values is PMC8645336, “Benchmarking a highly selective USP30 inhibitor for enhancement of mitophagy and pexophagy” (Life Science Alliance, 2021).

Experiment in all cases: biochemical
Holding throughout (set-up): Ubiquigent DUB profiler selectivity panel, remaining enzyme activity as % of control
Holding throughout (settings): read-out: % of control remaining

One test concerns the target T1, Cezanne (Homo sapiens, UniProt Q6GQQ9).
T1 construct: gene OTUD7B
T1 sequence (Q6GQQ9 1-843): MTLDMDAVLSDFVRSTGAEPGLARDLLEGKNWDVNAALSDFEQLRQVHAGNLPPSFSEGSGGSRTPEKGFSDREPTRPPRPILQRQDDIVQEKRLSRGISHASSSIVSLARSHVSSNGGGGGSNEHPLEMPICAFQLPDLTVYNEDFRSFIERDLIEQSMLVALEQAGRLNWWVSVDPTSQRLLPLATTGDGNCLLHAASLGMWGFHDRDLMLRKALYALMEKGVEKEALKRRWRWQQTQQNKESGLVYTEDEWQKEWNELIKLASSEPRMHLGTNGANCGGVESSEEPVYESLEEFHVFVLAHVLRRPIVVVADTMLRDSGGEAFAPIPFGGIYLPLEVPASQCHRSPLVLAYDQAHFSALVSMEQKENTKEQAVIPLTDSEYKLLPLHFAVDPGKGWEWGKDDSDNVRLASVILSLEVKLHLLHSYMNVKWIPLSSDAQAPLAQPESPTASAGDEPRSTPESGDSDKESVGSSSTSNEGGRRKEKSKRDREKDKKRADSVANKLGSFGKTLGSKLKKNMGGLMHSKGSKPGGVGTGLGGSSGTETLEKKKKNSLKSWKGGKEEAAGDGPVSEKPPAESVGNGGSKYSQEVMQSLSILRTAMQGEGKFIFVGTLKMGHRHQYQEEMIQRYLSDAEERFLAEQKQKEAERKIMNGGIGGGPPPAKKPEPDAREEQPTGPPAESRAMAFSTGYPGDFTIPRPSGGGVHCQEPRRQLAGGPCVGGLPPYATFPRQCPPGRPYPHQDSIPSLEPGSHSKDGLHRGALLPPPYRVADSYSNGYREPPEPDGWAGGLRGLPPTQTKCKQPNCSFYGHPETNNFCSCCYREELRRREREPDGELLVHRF
The method in brief: (§1)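 In YFP-PRKN-overexpressing hTERT-RPE1 cells, 1 h antimycin A plus oligomycin A (1 μM each) with CMPD-39, then Western blot of TOMM20 ubiquitylation. Target engagement: 2 h compound, then 10 min HA-Ub-PA at 37°C, read as USP30 shift. DUB panel (>40 enzymes) screened at 1-100 μM.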

The next test has as its target T2, OTUD5 (p177S) (Homo sapiens, UniProt Q96G74).
T2 construct: phosphorylated S177
T2 sequence (Q96G74 1-571): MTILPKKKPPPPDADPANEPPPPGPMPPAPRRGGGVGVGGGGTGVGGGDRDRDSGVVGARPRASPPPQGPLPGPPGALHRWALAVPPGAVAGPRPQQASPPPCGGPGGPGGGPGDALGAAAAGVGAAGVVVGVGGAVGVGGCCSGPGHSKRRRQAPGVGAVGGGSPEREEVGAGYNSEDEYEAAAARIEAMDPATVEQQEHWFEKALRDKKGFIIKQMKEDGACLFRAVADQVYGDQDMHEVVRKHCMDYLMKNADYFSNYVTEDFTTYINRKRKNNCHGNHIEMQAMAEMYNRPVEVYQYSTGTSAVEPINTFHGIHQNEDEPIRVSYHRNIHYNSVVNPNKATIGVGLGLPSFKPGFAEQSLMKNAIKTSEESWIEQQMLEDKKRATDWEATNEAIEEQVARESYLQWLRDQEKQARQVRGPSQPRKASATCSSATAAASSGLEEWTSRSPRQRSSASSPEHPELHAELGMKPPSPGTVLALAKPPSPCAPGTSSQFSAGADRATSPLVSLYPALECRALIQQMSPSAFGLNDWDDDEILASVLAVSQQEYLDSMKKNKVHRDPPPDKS
The method in brief: as §1

A further test deals with T3, USP30 (Homo sapiens, UniProt Q70CQ3).
T3 sequence (Q70CQ3 1-517): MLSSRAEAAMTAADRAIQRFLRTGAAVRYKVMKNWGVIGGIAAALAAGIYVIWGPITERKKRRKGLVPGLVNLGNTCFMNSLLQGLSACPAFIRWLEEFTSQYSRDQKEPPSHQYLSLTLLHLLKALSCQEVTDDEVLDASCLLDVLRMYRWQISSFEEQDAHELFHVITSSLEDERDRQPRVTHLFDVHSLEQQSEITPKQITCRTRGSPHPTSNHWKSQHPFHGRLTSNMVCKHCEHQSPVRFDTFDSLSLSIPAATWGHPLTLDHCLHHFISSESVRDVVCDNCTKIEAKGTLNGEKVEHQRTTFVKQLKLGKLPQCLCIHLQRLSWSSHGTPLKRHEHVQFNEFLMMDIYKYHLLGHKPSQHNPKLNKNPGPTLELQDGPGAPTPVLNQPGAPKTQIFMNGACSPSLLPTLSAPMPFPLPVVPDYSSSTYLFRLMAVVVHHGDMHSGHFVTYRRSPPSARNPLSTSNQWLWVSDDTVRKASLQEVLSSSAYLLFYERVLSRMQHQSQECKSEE
The method, boiled down: as §1

Each structure is given as a SMILES string.

As for `CC(C)(C)NS(=O)(=O)c1ccc(NC(=O)[C@H](Cc2ccccc2)NC(=O)c2ccc(F)cc2)cc1` [compound 39, CMPD-39], the remaining activity at 1 µM at Cezanne amounted to 98.7%; at OTUD5 (p177S), 108%; on USP30, 0.756%. Further, the values for the remaining activity at 10 µM on Cezanne, on OTUD5 (p177S) and at USP30 were 98.8%, 106% and 0.5%, respectively. The results for the remaining activity at 100 µM at Cezanne, on OTUD5 (p177S) and at USP30 were 94.4%, 89.9% and 3.27%, respectively.
